Experimental data taken from PubChem BioAssay AID1745844 (Carcinogenic Potency Database (CPDB), 2022).
Values joined by “and” are separate entries in the source; they are usually repeats but may differ in a detail not shown here. Identical values can stand only once. Active and inactive are the calls of the source. The rule behind the calls is not given here.

System: rodent lifetime carcinogenesis bioassay, tumor incidence TD50
Assay: carcinogenic potency in animals, long-term in vivo studies, CPDB compilation (AID 1745844)
[1] = mouse, strain B6C3F1, females, in feed, site: any site (literature study), lesion: several types, types named in the paper, dosed 104 weeks, study length 104 weeks
[2] = mouse, strain B6C3F1, females, in feed, site: lung, lesion: alveolar/bronchiolar adenoma + alveolar/bronchiolar carcinoma, dosed 104 weeks, study length 104 weeks
[3] = rat, strain Fischer 344, females, in feed, site: any site (literature study), lesion: several types, types named in the paper, dosed 104 weeks, study length 104 weeks
[4] = rat, strain Fischer 344, females, in feed, site: liver, lesion: hepatocellular adenoma + hepatoblastoma + hepatocellular carcinoma, dosed 104 weeks, study length 104 weeks
[5] = rat, strain Fischer 344, males, in feed, site: any site (literature study), lesion: several types, types named in the paper, dosed 104 weeks, study length 104 weeks

`O=NN1CCOCC1` was tested, and the TD50 (hamster, strain Syrian Golden, females, in drinking water, site: any site (literature study), lesion: several types, types named in the paper, dosed 104 weeks, study length 104 weeks) was 1.48 mg/kg/day, the TD50 (hamster, strain Syrian Golden, females, in drinking water, site: larynx, lesion: several types, types named in the paper, dosed 104 weeks, study length 104 weeks) was 15.4 mg/kg/day and the TD50 (hamster, strain Syrian Golden, females, in drinking water, site: liver, lesion: several types, types named in the paper, dosed 104 weeks, study length 104 weeks) was 51.6 mg/kg/day. For the same molecule, the TD50 (hamster, strain Syrian Golden, females, in drinking water, site: respiratory system, lesion: several types, types named in the paper, dosed 104 weeks, study length 104 weeks) was 1.35 mg/kg/day, the TD50 (hamster, strain Syrian Golden, females, in drinking water, site: trachea, lesion: mixed-cell mucoepidermoid papilloma, dosed 104 weeks, study length 104 weeks) was 11.3 mg/kg/day and the TD50 (hamster, strain Syrian Golden, males, in drinking water, site: any site (literature study), lesion: several types, types named in the paper, dosed 104 weeks, study length 104 weeks) was 5.56 mg/kg/day. It also gave a TD50 (hamster, strain Syrian Golden, males, in drinking water, site: larynx, lesion: several types, types named in the paper, dosed 104 weeks, study length 104 weeks) of 11.5 mg/kg/day, a TD50 (hamster, strain Syrian Golden, males, in drinking water, site: liver, lesion: several types, types named in the paper, dosed 104 weeks, study length 104 weeks) of 9.14 mg/kg/day and a TD50 (hamster, strain Syrian Golden, males, in drinking water, site: respiratory system, lesion: several types, types named in the paper, dosed 104 weeks, study length 104 weeks) of 5.98 mg/kg/day. The TD50 (hamster, strain Syrian Golden, males, in drinking water, site: trachea, lesion: mixed-cell mucoepidermoid papilloma, dosed 104 weeks, study length 104 weeks) was 7.98 mg/kg/day, the TD50 (rat, strain Fischer 344, females, in drinking water, site: adrenal medulla, lesion: pheochromocytoma, dosed 45 weeks, study length 126 weeks) was 0.325 mg/kg/day and the TD50 (rat, strain Fischer 344, females, in drinking water, site: adrenal medulla, lesion: pheochromocytoma, dosed 100 weeks, study length 126 weeks) was 1.07 mg/kg/day. For the same molecule, the TD50 (rat, strain Fischer 344, females, in drinking water, site: esophagus, lesion: several types, types named in the paper, dosed 45 weeks, study length 126 weeks) was 1.97 mg/kg/day, the TD50 (rat, strain Fischer 344, females, in drinking water, site: esophagus, lesion: squamous-cell papilloma, dosed 45 weeks, study length 126 weeks) was 2.53 mg/kg/day and the TD50 (rat, strain Fischer 344, females, in drinking water, site: liver, lesion: hemangiosarcoma, dosed 45 weeks, study length 126 weeks) was 0.666 mg/kg/day. For the same molecule, the TD50 (rat, strain Fischer 344, females, in drinking water, site: liver, lesion: hemangiosarcoma, dosed 50 weeks, study length 73 weeks) was 0.348 mg/kg/day, the TD50 (rat, strain Fischer 344, females, in drinking water, site: liver, lesion: hemangiosarcoma, dosed 100 weeks, study length 126 weeks) was 0.63 mg/kg/day and the TD50 (rat, strain Fischer 344, females, in drinking water, site: liver, lesion: hepatocellular carcinoma, dosed 45 weeks, study length 126 weeks) was 0.564 mg/kg/day. It also gave a TD50 (rat, strain Fischer 344, females, in drinking water, site: liver, lesion: hepatocellular carcinoma, dosed 50 weeks, study length 73 weeks) of 0.0805 mg/kg/day, a TD50 (rat, strain Fischer 344, females, in drinking water, site: liver, lesion: hepatocellular carcinoma, dosed 100 weeks, study length 126 weeks) of 0.431 mg/kg/day and a TD50 (rat, strain Fischer 344, females, in drinking water, site: liver, lesion: neoplastic nodule, dosed 45 weeks, study length 126 weeks) of 1.28 mg/kg/day. The TD50 (rat, strain Fischer 344, females, in drinking water, site: liver, lesion: neoplastic nodule, dosed 100 weeks, study length 126 weeks) was 0.239 mg/kg/day, the TD50 (rat, strain Fischer 344, females, in drinking water, site: liver, lesion: several types, types named in the paper, dosed 45 weeks, study length 126 weeks) was 0.14 mg/kg/day and the carcinogen call (rat, strain Fischer 344, females, in drinking water, site: liver, lesion: several types, types named in the paper, dosed 50 weeks, study length 73 weeks) was “positive”. The TD50 (rat, strain Fischer 344, females, in drinking water, site: liver, lesion: several types, types named in the paper, dosed 100 weeks, study length 126 weeks) was 0.127 mg/kg/day, the TD50 (rat, strain Fischer 344, females, in drinking water, site: thyroid gland, lesion: c-cell carcinoma, dosed 45 weeks, study length 126 weeks) was 0.363 mg/kg/day and the TD50 (rat, strain Fischer 344, females, in drinking water, site: thyroid gland, lesion: follicular-cell adenoma, dosed 100 weeks, study length 126 weeks) was 0.581 mg/kg/day. It also gave a TD50 (rat, strain Fischer 344, females, in drinking water, site: tongue, lesion: several types, types named in the paper, dosed 45 weeks, study length 126 weeks) of 6.54 mg/kg/day, a TD50 (rat, strain Fischer 344, females, in drinking water, site: tongue, lesion: squamous-cell papilloma, dosed 45 weeks, study length 126 weeks) of 50.2 mg/kg/day and a TD50 (rat, strain Fischer 344, females, in drinking water, site: tongue, lesion: squamous-cell papilloma, dosed 100 weeks, study length 126 weeks) of 3.49 mg/kg/day.

In the case of `CCN(Cc1cccc(S(=O)(=O)O)c1)c1ccc(C(=C2C=CC(=[N+](CC)Cc3cccc(S(=O)(=O)[O-])c3)C=C2)c2ccccc2)cc1`, the TD50 (mouse, strain C3HeB/FeJ, females, in feed, site: any site (literature study), lesion: malignant tumor, dosed 104 weeks, study length 104 weeks) is reported as 18400 mg/kg/day (inactive), the carcinogen call (mouse, strain C3HeB/FeJ, females, in feed, site: any site (literature study), lesion: several types, types named in the paper, dosed 104 weeks, study length 104 weeks) is reported as “negative (inactive)” and the TD50 (mouse, strain C3HeB/FeJ, females, in feed, site: liver, lesion: several types, types named in the paper, dosed 104 weeks, study length 104 weeks) is reported as 146000 mg/kg/day (inactive). For the same molecule, the TD50 (mouse, strain C3HeB/FeJ, females, in feed, site: lung, lesion: adenoma, dosed 104 weeks, study length 104 weeks) was 146000 mg/kg/day (inactive), the carcinogen call (mouse, strain C3HeB/FeJ, males, in feed, site: any site (literature study), lesion: malignant tumor, dosed 104 weeks, study length 104 weeks) was “negative (inactive)” and the TD50 (mouse, strain C3HeB/FeJ, males, in feed, site: any site (literature study), lesion: several types, types named in the paper, dosed 104 weeks, study length 104 weeks) was 20800 mg/kg/day (inactive). For the same molecule, the TD50 (mouse, strain C3HeB/FeJ, males, in feed, site: liver, lesion: several types, types named in the paper, dosed 104 weeks, study length 104 weeks) was 26100 mg/kg/day (inactive), the TD50 (mouse, strain C3HeB/FeJ, males, in feed, site: lung, lesion: several types, types named in the paper, dosed 104 weeks, study length 104 weeks) was 59200 mg/kg/day and the carcinogen call (rat, strain Osborne-Mendel, females, in feed, site: any site (literature study), lesion: malignant tumor, dosed 104 weeks, study length 104 weeks) was “negative (inactive)”. For the same molecule, the TD50 (rat, strain Osborne-Mendel, females, in feed, site: any site (literature study), lesion: several types, types named in the paper, dosed 104 weeks, study length 104 weeks) was 97500 mg/kg/day, the TD50 (rat, strain Osborne-Mendel, females, in feed, site: liver, lesion: several types, types named in the paper, dosed 104 weeks, study length 104 weeks) was 13800 mg/kg/day and the carcinogen call (rat, strain Osborne-Mendel, males, in feed, site: any site (literature study), lesion: malignant tumor, dosed 104 weeks, study length 104 weeks) was “negative (inactive)”. The TD50 (rat, strain Osborne-Mendel, males, in feed, site: any site (literature study), lesion: several types, types named in the paper, dosed 104 weeks, study length 104 weeks) was 11400 mg/kg/day, the TD50 (rat, strain Osborne-Mendel, males, in feed, site: liver, lesion: several types, types named in the paper, dosed 104 weeks, study length 104 weeks) was 5980 mg/kg/day and the TD50 (rat, strain Wistar, both sexes, in feed, site: abdomen, lesion: malignant lymphoma, dosed 93 weeks, study length 93 weeks) was 8370 mg/kg/day. It also gave a TD50 (rat, strain Wistar, both sexes, in feed, site: mediastinum, lesion: malignant lymphoma, dosed 93 weeks, study length 93 weeks) of 8370 mg/kg/day and a TD50 (rat, strain Wistar, both sexes, in feed, site: several sites, sites named in the paper, lesion: malignant lymphoma, dosed 93 weeks, study length 93 weeks) of 3920 mg/kg/day.

Work on `NC(N)=Nc1nc(CSCCNc2nsnc2N)cs1` yielded a TD50 (rat, strain Charles River CD (Sprague-Dawley), females, by gavage, site: gastric mucosa, lesion: carcinoid tumor, malignant, dosed 105 weeks, study length 105 weeks) of 6270 mg/kg/day and a TD50 (rat, strain Charles River CD (Sprague-Dawley), males, by gavage, site: gastric mucosa, lesion: carcinoid tumor, malignant, dosed 105 weeks, study length 105 weeks) of 4140 mg/kg/day.

`CCCCC(CC)CO` (centres undefined) was tested, and the TD50 (mouse, strain B6C3F1, females, by gavage, site: liver, lesion: hepatocellular carcinoma, dosed 80 weeks, study length 80 weeks) was 1680 mg/kg/day, the TD50 (mouse, strain B6C3F1, males, by gavage, site: liver, lesion: several types, types named in the paper, dosed 80 weeks, study length 80 weeks) was 1710 mg/kg/day (inactive) and the carcinogen call (rat, strain Fischer 344, females, by gavage, site: liver, lesion: hepatocellular carcinoma, dosed 104 weeks, study length 104 weeks) was “negative (inactive)”. For the same molecule, the carcinogen call (rat, strain Fischer 344, males, by gavage, site: liver, lesion: several types, types named in the paper, dosed 104 weeks, study length 104 weeks) was “negative (inactive)”.

In the case of `CCOc1ccc(NC(N)=O)cc1`, the TD50 (rat, strain Osborne-Mendel, both sexes, in feed, site: liver, lesion: several types, types named in the paper, dosed 104 weeks, study length 104 weeks) is reported as 537 mg/kg/day.

`O=C1N(CCO)CCN1N=Cc1ccc([N+](=O)[O-])o1` gave a TD50 (rat, strain Sprague-Dawley, females, in feed, site: any site (literature study), lesion: several types, types named in the paper, dosed 46 weeks, study length 66 weeks) of 18 mg/kg/day and a TD50 (rat, strain Sprague-Dawley, females, in feed, site: mammary gland, lesion: adenocarcinoma, dosed 46 weeks, study length 66 weeks) of 16.7 mg/kg/day.

For `Cc1cc(O)c2c(c1)C(=O)c1cc(O)cc(O)c1C2=O`, the TD50 [1] was 548 mg/kg/day (inactive), the TD50 [2] was 65800 mg/kg/day and the TD50 (mouse, strain B6C3F1, males, in feed, site: kidney, lesion: tubule adenoma + tubule carcinoma, dosed 104 weeks, study length 104 weeks) was 965 mg/kg/day and 885 mg/kg/day. It also gave a TD50 (rat, strain Fischer 344, females, in feed, site: Zymbal's gland, lesion: carcinoma, dosed 104 weeks, study length 104 weeks) of 1970 mg/kg/day, a TD50 [3] of 797 mg/kg/day and a TD50 [4] of 4300 mg/kg/day. For the same molecule, the carcinogen call [5] was “negative (inactive)”.

For `Cc1cc(O)c(C(C)(C)C)cc1Sc1cc(C(C)(C)C)c(O)cc1C`, the TD50 [1] was 484 mg/kg/day (inactive), the TD50 [2] was 2020 mg/kg/day and the carcinogen call (mouse, strain B6C3F1, males, in feed, site: any site (literature study), lesion: several types, types named in the paper, dosed 104 weeks, study length 104 weeks) was “negative (inactive)”. The TD50 [3] was 196 mg/kg/day, the TD50 [4] was 3990 mg/kg/day and the TD50 (rat, strain Fischer 344, females, in feed, site: thyroid gland, lesion: c-cell adenoma + c-cell adenoma, bilateral, dosed 104 weeks, study length 104 weeks) was 361 mg/kg/day. The TD50 (rat, strain Fischer 344, females, in feed, site: thyroid gland, lesion: c-cell adenoma + c-cell carcinoma + c-cell adenoma, bilateral, dosed 104 weeks, study length 104 weeks) was 325 mg/kg/day, the TD50 (rat, strain Fischer 344, females, in feed, site: uterus, lesion: endometrial stromal polyp + endometrial stromal sarcoma, dosed 104 weeks, study length 104 weeks) was 262 mg/kg/day (inactive) and the TD50 (rat, strain Fischer 344, females, in feed, site: uterus, lesion: endometrial stromal polyp, dosed 104 weeks, study length 104 weeks) was 286 mg/kg/day. For the same molecule, the TD50 [5] was 449 mg/kg/day (inactive) and the TD50 (rat, strain Fischer 344, males, in feed, site: liver, lesion: hepatocellular adenoma + hepatoblastoma + hepatocellular carcinoma, dosed 104 weeks, study length 104 weeks) was 324 mg/kg/day.
